Data taken from patent US20110294741A1, “USE OF COMPOUNDS IN THE TREATMENT OF TAU-INDUCED CYTOTOXICITIES” (Bioalvo-Servicos, Investigacao e Desenvolvimento em …, priority 2008, published 2011).

Assays:
[1] = Metabolic stability in human liver microsomal preparation; type: in vitro ADME; conditions: human liver microsomes, 1-hour incubation
From the text: Many compounds can never become a drug because they are rapidly metabolized in the liver. It is important to confirm that metabolic stability is adequate to the desired distribution of compound throughout the body.

[2] = Acrylamide quenching to determine aggregation in aqueous medium; type: physicochemical; conditions: acrylamide quenching of tyrosine fluorescence, Stern-Volmer plot
Procedure: The aggregation of molecules in aqueous medium, as a result of poor solubility, for example, is a critical parameter in pharmacology. […] For this purpose, acrylamide quenching studies were performed (Lakowicz J. R 1999. Principles of Fluorescence spectroscopy, Second Edition ed., Kluwer Academic/Plenum Publishers, New York; Coutinho A and Prieto M. 1993. Ribonuclease T1 and alcohol dehydrogenase fluorescence quenching by acrylamide: A laboratory experiment for undergraduate students J. Chem. Education, 70: 425-428).
Acrylamide is an aqueous quencher of the tyrosine fluorescence. When fluorescent peptides aggregate, the phenolic groups tend to cluster and remain inaccessible to hydrophilic molecules. Conversely, when no aggregation occurs, all tyrosine residues are exposed to the solvent and, therefore, accessible to the contact and quenching by acrilamide.
The fluorescence spectra were not concentration-dependent (not shown) and there was a linear dependence of fluorescence intensity on concentration (not shown).

[3] = Partition of peptide into lipid bilayer vesicles (fluorescence titration); type: physicochemical
From the text: Vesicles of zwiterionic lipid, POPC ([…]), and POPC with negative lipid, POPG in different proportions: 80:20 ▪, 50:50 and 30:70 ? until 100% POPG ( ? ). The unit of 1/1 w on the y axis is the ratio between fluorescence intensities.
Vesicles of zwiterionic lipid, POPC, and POPC with negative lipid, POPG, in the proportion 50 POPC: 50 POPG.
As can be observed, the fluorescence intensity of the phenolic moiety increases due to the insertion in the apolar environment created by the lipids. Negative lipids (other symbols) inhibit the interaction due to charge repulsion. […] KTP-NH2 is therefore suitable for i.v. or i.p. administration. KTP-NH2 diffuses through the blood stream, reaches the BBB, and translocates.
In order to confirm that these plasma-stable KTP-NH2 derivatives maintained their lipophilicity, their potential interaction with human cell membranes was assessed. Again, we performed biophysical studies using fluorescent methodologies (Santos N. C., Prieto M. and Castanho M. A. 2003. Quantifying molecular partition into model systems of biomembranes: an emphasis on optical spectroscopic methods. Biochim Biophys Acta 1612: 123-135.).

[4] = Plasma stability; type: in vitro ADME, human; conditions: after 1 h incubation
From the text: Drugs are exposed in plasma to enzymatic processes (proteinases, esterases), they can undergo intramolecular rearrangement or bind irreversibly (covalently) to proteins. Compounds which are not stable in plasma have inherent liability as drug candidates, as they are less capable to reach a sufficient concentration at their site of pharmacological activity.

[5] = tested on: Tau P301L ([…] I P301L cells); assay: Yeast platform DISAGGREGATOR I P301L, ER stress GFP reporter (target induced); type: cell-based; conditions: for decrease of the fluorescent signal: first assay (FIG. 9); for decrease of the stress: second assay (FIG. 11)
Procedure: Cells were grown in 200 microlitre minimum medium supplemented with 20 g/L galactose, at 30° C., with agitation at 600 rpm;
KTP-NH2 was further tested on a general inducer of the same pathological mechanism to assess its specificity for tau and compared with two control KTP derivatives which were tested on the same platform.
The Endoplasmic Reticulum (ER) fulfils multiple cellular functions, the main one being the proper folding of proteins destined for secretion or display on the cell surface. Many disturbances cause accumulation of unfolded proteins in the ER, triggering an evolutionarily conserved response, termed the unfolded protein response (UPR) or ER stress. The initial intent of the UPR is to adapt to the changing environment, and re-establish normal ER function.
In parallel, the yeast platform DISAGGREGATOR I P301L comprises the same ER stress element operably linked to the same GFP reporter element and additionally expresses the exogenous protein TAU P301L which induces ER stress.
Using these two platforms in parallel, it is possible to identify compounds that reduce specifically the stress induced by the TAU P301L protein, and other compounds that are simply general ER stress reducers.
DISAGGREGATOR I P301L cells were grown in 200 μl medium containing KTP-NH2 or control compounds (referred to as control 1 and control 2) at a concentration of 10 μM and 100 μM. No effect on the fluorescence could be detected for the control compounds, meaning that the two compounds are inefficient to reduce the stress triggered by the TAU P301L protein (FIGS. 7 and 8).
DISAGGREGATOR I P301L cells were grown in 200 μl medium containing the KTP-NH2 at a concentration of 10 μM and 100 μM. DISAGGREGATOR I cells were grown in the same condition but subjected to an addition of 1 μg/mL of tunicamycin in order to induce ER stress chemically.
The inventors created a yeast-based screening application for the detection of compounds that act as modulators of the toxicity (neurodegeneration) for neurons (not pain) induced by the expression of tau P301L, a pathological isoform of tau protein. This yeast-based application is designated as DISAGGREGATOR I P301L and provides a valuable tool for the high throughput screening of tau modulators. It is a model-based system where the cellular environment produced upon P301L expression is recapitulated and cell toxicity is measured and quantified. Compounds that have the potential to modulate pathological pathways activated by the expression of P301L are detected through a reduction in the cytotoxic readout. Tau protein is expressed in central nerve cells and, consequently, tauopathies are diseases of the central nervous system. This implies that a therapeutic compound for tauopathies must be able to access the central nervous system by penetrating the blood-brain barrier. We tested KTP-NH2 in the DISAGGREGATOR P301L system. Results were very impressive for KTP-NH2 to be used as a drug for tau-associated pathologies. Therefore, after obtaining the proof of concept confirmation of KTP-NH2 potential as a tau modulator, we developed a series of derivatives with a higher plasma-stability. The present invention protects the use of KTP-NH2 and its derivatives in the treatment of tau-induced cytotoxicities.

[6] = Cytotoxicity in human hepatocytes (LDH release and ATP); type: cell-based; conditions: LDH and ATP determination, read-out: LC50 (the source's name)
Procedure: Cytotoxicity was assessed with a cell-based assay using human hepatocytes. Cell death was assayed by quantifying plasma membrane damage or rupture through measurement of the release of lactate dehydrogenase (LDH) (Legrand, C. et al. 1992. Lactate dehydrogenase (LDH) activity of the cultured eukaryotic cells as marker of the number of dead cells in the medium. J. Biotechnol. 25: 231-243), a stable cytoplasmic enzyme present in most cells. Determination of cell viability was performed by quantifying ATP (Cree I. A and Andreotti P. E. 1997. Measurement of cytotoxicity by ATP-based luminescence assay in primary cell cultures and cell lines. Toxicology in vitro, 11: 553-556), a marker for cell viability because it is present in all metabolically active cells and the concentration declines very rapidly when the cells undergo necrosis or apoptosis.

Q: Which “compound remained after incubation with microsomal preparation” value [1] does the source give for `N=C(N)NCCCC(NC(=O)C(N)Cc1ccc(O)cc1)C(N)=O` [KTP-NH2, L-Tyr-L-Arg-NH2] here?
A: 93%

Q: What about the “aggregation in aqueous medium” value [2] of the same compound?
A: No evidence was found for aggregation

Q: And the “partition coefficient for POPC, compared with KTP-OH” value ([3]; POPC membranes, KTP-OH value from Lopes et al 2006)?
A: significantly superior to the one of KTP-OH

Q: And the “local concentration in the model membrane of mammals versus surrounding bulk aqueous phase” value ([3]; POPC vesicles, numerical treatment of fluorescence titration data)?
A: approx. 2,500 fold

Q: What about the “stability in human plasma” value [4] of the same compound?
A: 14-21%

Q: And the “effect on the fluorescence (ER stress triggered by TAU P301L)” value ([5]; 10 μM and 100 μM)?
A: decreased the fluorescence signal

Q: What about the “decrease of the fluorescent signal” value ([5]; 10 μM) of the same compound?
A: 40%

Q: And the “decrease of the stress” value ([5]; 10 μM)?
A: 50%

Q: And the “residual ER stress signal, of the maximum level without compound” value ([5]; 100 μM, average of two experiments (FIG. 13))?
A: ~40%

Q: What about the “decrease of the fluorescent signal” value ([5]; 100 μM) of the same compound?
A: 65%

Q: And the “decrease of the stress” value ([5]; 100 μM)?
A: 50%

Q: And the CC50 [6]?
A: > 125 µM
